Here are results for two substances from US12103914B2, “Compositions of biologically active menaquinol derivatives and methods of treatment” (Epizon Pharma, Inc., priority 2020, dated 2024).

The assay relates to vascular calcification and tissue calcification in patient with moderate calciphylaxis. The assay is described as follows: Treatment of patients diagnosed with moderate calciphylaxis (case examples). The class given is in vivo, human. On the procedure:
This example describes the administration of the disclosed compounds to subjects diagnosed with calciphylaxis. Typical symptoms include presentation of characteristic painful skin lesions (Nigwekar et al. (2015) Calciphylaxis: Risk Factors, Diagnosis, and Treatment. Am. J. Kidney Dis. 66:133-46). Definitive diagnosis of calciphylaxis is achieved via skin biopsy. Further conditions need to be considered for correct diagnosis.
The dosage form is a 5 mg, 10 mg, 25 mg, 50 mg or 100 mg soft-gel capsule. Two 50 mg capsules are administered once daily to the 100 mg dosage cohort. […]

On to Calcium salt of Menaquinol-7, for which the “reduction in tissue calcification” value by setting is: (45 kg patient, 20 mg, 10 weeks) 15%; (65 kg patient, 100 mg, 8 weeks) 10%. The “reduction in vascular calcification (suggested by change in examined biomarker levels)” value is, setting by setting: (45 kg patient, 20 mg, 10 weeks) roughly 20%; (65 kg patient, 100 mg, 8 weeks) roughly 10%.
As for Potassium salt of Menaquinol-7, under “70 kg patient, 50 mg, 3 months”, the “reduction in tissue calcification” value was determined as 20% and the “reduction in vascular calcification (suggested by change in examined biomarker levels)” value is roughly 25%.
